Laboratory results published in ChEMBL document CHEMBL5214883, “Comprehensive review for anticancer hybridized multitargeting HDAC inhibitors” (Eur J Med Chem, 2021).

Columns and labels:
Tubulin = test: Inhibition of tubulin polymerization (unknown origin) incubated for 15 mins in presence of GTP by fluorescence-based tubulin polymerization assay kit; type: protein-complex assay, Homo sapiens
Histone deacetylase 1 [1] = target: T1, Histone deacetylase 1 (Homo sapiens, UniProt Q13547); test: Inhibition of HDAC1 in human HeLa cell nuclear extract using Bos-Lys(acetyl)-AMC as substrate preincubated for 5 mins followed by substrate addition incubated for 30 mins; type: cell-free
[2] = tested on: Epidermal growth factor receptor (Homo sapiens), P00533 [UNDEFINED MUTATION]; test: Inhibition of EGFR T790M (unknown origin) at 1 uM incubated for 40 mins in presence of ATP relative to control
K562 = test: Cytotoxicity against human K562 cells
DU-145 [3] = test: Cytotoxicity against human DU-145 cells
SMMC-7721 = test: Cytotoxicity against human SMMC-7721 cells; type: functional, cell-based
[4] = target: Histone-lysine N-methyltransferase EZH2 (Homo sapiens, UniProt Q15910); test: Inhibition of EZH2 (unknown origin)
[5] = target: T2, Protein deacetylase HDAC6 (Homo sapiens, UniProt Q9UBN7); test: Inhibition of HDAC-6 (unknown origin) expressed in Escherichia coli BL21 (DE3) in HeLa nuclear extract using Boc-Lys(TFA)-AMC as substrate preincubated for 5 mins followed by substrate addition measured after 30 mins […]
T2 sequence (Q9UBN7 whole entry): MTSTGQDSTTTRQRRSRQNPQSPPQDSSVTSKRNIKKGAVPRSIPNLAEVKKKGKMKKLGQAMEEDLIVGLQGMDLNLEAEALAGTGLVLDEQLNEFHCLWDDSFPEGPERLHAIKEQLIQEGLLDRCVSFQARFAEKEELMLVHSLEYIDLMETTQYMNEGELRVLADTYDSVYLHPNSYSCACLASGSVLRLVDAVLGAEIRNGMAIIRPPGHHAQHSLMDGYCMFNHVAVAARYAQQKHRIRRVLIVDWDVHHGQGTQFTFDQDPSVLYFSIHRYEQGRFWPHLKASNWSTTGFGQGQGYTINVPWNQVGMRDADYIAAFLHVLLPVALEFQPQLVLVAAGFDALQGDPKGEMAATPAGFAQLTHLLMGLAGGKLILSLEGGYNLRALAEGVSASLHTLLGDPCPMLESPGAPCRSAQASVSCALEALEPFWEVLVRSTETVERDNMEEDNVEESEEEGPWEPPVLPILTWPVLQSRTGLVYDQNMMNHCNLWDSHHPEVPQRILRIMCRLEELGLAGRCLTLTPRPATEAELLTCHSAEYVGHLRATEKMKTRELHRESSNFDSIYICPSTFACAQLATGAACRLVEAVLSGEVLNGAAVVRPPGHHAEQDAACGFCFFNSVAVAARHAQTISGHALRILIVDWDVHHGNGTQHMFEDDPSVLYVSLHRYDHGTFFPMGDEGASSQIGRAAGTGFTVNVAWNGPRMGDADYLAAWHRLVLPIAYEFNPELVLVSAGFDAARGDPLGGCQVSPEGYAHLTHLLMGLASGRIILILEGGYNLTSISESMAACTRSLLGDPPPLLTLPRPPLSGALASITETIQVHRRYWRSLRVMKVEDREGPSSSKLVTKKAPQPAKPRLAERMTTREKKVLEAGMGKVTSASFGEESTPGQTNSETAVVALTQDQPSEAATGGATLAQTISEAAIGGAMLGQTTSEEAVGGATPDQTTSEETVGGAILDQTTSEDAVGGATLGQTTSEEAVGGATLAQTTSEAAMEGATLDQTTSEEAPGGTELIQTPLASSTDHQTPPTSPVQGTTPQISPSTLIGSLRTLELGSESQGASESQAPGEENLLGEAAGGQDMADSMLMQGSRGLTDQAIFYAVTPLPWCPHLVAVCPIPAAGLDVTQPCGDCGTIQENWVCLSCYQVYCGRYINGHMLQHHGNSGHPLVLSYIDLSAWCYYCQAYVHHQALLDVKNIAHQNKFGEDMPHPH

MCF7 = test: Cytotoxicity against human MCF7 cells; type: functional, cell-based
Histone deacetylase [6] = test: Inhibition of HDAC (unknown origin); type: protein assay, Homo sapiens
[7] = target: Vascular endothelial growth factor receptor 2 (Homo sapiens, UniProt P35968); test: Inhibition of VEGFR2 (unknown origin)
Vitamin D3 receptor = Vitamin D3 receptor (Homo sapiens, UniProt P11473); test: Agonist activity at Vitamin D receptor (unknown origin) by fluorescence polarization assay
[8] = tested on: Panel NCI-60 (60 carcinoma cell lines); test: Cytotoxicity against human Panel NCI-60 (60 carcinoma cell lines); type: functional, cell-based
Histone deacetylase 1 [9] = target: T1, Histone deacetylase 1; test: Inhibition of human recombinant HDAC1 using Ac-Lys-Tyr-Lys (epsilon-acetyl)-AMC as substrate incubated for 24 hrs by EnVision multilabel plate reader method
PC-3 = test: Antiproliferative activity against human PC-3 cells incubated for 48 hrs by Sulforhodamine B staining method; type: functional, cell-based; settings: PC-3, 48 h
DU-145 [10] = test: Antiproliferative activity against human DU-145 cells incubated for 48 hrs by Sulforhodamine B staining method; type: functional, cell-based; settings: DU-145, 48 h
Histone deacetylase 1 [11] = target: T1, Histone deacetylase 1; test: Inhibition of HDAC1 (unknown origin)
[12] = target: cGMP-specific 3',5'-cyclic phosphodiesterase (Homo sapiens, UniProt O76074); test: Inhibition of PDE5 (unknown origin) incubated for 1.5 hrs by IMAP fluorescence polarization phosphodiesterase evaluation assay
Histone deacetylase [13] = test: Inhibition of HDAC (unknown origin) by H4 Hybrid Multi-Mode Microplate Reade; type: protein assay, Homo sapiens
Histone deacetylase 1 [14] = target: T1, Histone deacetylase 1; test: Inhibition of HDAC1 (unknown origin) relative to control; settings: concentration not given here
[15] = target: Receptor tyrosine-protein kinase erbB-2 (Homo sapiens, UniProt P04626); test: Inhibition of HER2 (unknown origin) at 10 ug/ml using synthetic biotinylated peptide as substrate by Wallac Victor II 1420 microplate reader method relative to control; settings: dose 10.0 µg/ml
[16] = target: Inhibitor of nuclear factor kappa-B kinase subunit alpha (Homo sapiens) (UniProt O15111); test: Inhibition of IKKa (unknown origin) at 1 uM relative to control
[17] = target: Ribosomal protein S6 kinase alpha-5 (Homo sapiens) (UniProt O75582); test: Inhibition of MSK1 (unknown origin) at 1 uM relative to control

T1 sequence (Q13547 whole entry): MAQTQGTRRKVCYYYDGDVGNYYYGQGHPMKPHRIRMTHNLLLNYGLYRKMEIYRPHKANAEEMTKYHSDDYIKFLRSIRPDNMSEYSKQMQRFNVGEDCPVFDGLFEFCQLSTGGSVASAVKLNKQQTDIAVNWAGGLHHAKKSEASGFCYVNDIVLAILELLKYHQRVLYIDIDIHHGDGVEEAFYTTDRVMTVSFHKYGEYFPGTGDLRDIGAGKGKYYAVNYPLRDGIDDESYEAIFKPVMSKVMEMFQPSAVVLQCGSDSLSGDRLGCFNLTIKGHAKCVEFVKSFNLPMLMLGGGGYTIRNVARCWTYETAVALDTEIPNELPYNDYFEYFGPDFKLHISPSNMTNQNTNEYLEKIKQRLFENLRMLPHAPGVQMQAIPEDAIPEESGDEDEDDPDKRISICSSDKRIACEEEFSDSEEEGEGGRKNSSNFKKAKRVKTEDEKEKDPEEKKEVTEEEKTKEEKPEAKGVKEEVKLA
Epidermal growth factor receptor (Homo sapiens), P00533 [UNDEFINED MUTATION], sequence (P00533 whole entry, looked up, stated change not applied): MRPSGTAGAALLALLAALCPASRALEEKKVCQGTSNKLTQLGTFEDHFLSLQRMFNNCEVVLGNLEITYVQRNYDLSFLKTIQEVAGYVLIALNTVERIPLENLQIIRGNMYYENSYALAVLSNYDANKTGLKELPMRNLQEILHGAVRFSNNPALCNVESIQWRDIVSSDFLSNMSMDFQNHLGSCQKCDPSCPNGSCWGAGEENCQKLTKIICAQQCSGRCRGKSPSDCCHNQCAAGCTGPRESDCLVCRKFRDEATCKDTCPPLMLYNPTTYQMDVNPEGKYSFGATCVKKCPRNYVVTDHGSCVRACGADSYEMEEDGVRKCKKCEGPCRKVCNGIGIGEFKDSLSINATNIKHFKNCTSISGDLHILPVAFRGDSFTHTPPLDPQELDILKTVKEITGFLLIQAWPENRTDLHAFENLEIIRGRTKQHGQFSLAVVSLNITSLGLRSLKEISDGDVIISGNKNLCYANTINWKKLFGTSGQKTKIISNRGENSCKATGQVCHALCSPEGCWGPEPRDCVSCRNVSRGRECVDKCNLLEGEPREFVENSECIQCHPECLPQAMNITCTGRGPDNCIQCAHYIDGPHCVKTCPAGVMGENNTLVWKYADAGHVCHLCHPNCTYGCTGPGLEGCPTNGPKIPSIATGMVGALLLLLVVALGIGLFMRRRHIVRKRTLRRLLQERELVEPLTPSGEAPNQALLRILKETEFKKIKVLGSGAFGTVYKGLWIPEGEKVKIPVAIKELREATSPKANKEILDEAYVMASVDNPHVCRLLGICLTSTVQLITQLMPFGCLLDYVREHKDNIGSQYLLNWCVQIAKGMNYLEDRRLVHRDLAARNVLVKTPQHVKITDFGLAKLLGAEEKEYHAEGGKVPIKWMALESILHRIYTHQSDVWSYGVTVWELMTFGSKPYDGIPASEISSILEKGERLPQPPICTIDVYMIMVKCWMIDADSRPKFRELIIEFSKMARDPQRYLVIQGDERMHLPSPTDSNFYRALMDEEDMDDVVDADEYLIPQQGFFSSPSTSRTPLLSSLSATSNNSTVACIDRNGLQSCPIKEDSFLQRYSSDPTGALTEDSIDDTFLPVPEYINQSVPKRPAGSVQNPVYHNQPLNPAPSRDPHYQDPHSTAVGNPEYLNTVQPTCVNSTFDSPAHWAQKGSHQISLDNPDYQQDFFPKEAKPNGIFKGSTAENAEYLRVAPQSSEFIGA
Vascular endothelial growth factor receptor 2, sequence (P35968 whole entry): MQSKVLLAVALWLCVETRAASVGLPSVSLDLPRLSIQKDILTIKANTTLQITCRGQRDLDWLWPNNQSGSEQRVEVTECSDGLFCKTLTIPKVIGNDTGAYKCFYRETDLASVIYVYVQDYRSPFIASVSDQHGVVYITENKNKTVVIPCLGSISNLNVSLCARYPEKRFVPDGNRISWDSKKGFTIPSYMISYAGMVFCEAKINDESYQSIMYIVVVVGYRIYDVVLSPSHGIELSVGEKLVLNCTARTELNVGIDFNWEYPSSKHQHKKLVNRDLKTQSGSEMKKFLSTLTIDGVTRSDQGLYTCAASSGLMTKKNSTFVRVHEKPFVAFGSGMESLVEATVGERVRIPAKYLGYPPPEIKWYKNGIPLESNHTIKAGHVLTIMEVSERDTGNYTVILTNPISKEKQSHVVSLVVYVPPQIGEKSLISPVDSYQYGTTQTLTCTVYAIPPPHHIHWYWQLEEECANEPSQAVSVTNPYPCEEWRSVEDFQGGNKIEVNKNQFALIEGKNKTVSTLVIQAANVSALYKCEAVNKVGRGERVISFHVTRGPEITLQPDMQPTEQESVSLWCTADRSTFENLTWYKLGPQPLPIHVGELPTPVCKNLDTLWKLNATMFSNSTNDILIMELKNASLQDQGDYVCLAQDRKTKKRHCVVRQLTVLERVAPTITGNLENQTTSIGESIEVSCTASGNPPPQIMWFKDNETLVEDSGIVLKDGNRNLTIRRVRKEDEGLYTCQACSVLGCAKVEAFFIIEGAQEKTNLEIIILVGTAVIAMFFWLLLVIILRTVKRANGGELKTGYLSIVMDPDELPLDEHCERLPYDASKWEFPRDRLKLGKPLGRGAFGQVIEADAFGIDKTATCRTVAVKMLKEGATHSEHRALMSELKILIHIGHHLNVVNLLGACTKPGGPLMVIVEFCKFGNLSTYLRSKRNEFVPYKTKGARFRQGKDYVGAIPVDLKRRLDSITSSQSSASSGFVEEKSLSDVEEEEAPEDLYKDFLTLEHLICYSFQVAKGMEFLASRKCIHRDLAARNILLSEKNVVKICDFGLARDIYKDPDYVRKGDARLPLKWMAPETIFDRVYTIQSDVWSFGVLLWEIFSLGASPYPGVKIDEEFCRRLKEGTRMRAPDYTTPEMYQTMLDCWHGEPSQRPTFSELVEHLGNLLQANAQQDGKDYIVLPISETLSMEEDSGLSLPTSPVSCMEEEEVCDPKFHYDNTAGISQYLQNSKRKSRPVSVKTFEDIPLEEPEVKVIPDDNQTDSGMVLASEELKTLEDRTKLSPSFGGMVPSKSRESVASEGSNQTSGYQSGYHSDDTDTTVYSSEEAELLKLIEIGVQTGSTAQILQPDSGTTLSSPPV
Histone-lysine N-methyltransferase EZH2, sequence (Q15910 whole entry): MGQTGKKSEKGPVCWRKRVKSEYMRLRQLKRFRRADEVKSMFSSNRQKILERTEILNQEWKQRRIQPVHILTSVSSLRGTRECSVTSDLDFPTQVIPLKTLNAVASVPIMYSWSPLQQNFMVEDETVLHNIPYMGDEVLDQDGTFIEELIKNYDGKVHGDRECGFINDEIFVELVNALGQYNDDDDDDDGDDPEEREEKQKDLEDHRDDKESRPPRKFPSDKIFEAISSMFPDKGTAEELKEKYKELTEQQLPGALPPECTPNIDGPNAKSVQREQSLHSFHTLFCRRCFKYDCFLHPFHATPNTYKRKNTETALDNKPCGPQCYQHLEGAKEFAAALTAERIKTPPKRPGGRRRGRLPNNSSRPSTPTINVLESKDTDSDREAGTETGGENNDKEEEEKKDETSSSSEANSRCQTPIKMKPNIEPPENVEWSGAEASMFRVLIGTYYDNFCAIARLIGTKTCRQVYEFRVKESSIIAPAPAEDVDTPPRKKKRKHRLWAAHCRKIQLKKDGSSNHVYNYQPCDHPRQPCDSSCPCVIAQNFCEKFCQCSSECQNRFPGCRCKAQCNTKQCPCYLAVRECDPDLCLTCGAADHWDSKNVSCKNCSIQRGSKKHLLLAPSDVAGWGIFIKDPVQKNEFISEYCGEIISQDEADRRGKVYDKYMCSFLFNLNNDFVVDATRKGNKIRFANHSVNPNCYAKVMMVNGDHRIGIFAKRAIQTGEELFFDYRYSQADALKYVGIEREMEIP
Receptor tyrosine-protein kinase erbB-2, sequence (P04626 whole entry): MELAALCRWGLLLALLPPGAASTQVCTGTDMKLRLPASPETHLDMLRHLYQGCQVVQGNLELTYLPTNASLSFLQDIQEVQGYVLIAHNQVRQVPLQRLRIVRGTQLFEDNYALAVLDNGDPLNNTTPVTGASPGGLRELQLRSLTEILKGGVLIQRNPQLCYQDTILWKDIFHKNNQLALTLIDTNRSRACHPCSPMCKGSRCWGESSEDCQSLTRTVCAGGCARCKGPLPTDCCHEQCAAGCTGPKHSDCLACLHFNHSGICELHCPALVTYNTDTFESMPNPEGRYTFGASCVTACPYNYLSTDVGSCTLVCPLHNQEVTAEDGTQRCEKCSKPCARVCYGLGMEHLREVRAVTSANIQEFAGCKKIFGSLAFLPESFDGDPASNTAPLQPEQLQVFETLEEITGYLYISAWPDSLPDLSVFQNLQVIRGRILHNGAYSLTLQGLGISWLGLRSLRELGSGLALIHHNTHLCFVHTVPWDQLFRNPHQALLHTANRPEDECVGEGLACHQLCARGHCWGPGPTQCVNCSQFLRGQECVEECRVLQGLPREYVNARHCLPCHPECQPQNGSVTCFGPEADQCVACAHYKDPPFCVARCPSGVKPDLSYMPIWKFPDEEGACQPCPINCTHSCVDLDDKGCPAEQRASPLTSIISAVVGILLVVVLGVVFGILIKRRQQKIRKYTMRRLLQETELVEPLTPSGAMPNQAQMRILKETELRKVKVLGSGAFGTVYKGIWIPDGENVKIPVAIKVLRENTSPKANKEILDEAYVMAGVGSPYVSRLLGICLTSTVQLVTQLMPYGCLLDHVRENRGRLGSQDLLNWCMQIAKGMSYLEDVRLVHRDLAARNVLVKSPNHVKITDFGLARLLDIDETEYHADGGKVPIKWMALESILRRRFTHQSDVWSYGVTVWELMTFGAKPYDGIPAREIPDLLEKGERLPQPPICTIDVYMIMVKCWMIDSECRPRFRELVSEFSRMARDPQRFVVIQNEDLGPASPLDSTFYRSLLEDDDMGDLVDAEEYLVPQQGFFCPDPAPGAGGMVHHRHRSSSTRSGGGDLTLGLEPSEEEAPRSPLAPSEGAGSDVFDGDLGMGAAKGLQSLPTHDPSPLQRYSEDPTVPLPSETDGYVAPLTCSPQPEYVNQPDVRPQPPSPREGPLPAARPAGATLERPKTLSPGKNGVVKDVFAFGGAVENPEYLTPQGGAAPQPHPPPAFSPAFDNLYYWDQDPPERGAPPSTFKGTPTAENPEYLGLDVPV

C[C@H]1COc2c(N3CCN(C)CC3)c(F)cc3c(=O)c(C(=O)NCc4cn(CCCCCCC(=O)NO)nn4)cn1c23
IC50 (Tubulin): 1.79 µM

COc1cc(NC(=O)CCCCCC(=O)NO)ccc1Nc1nccc(-c2cn(C)c3ccccc23)n1
IC50 (Histone deacetylase 1 [1]): 0.121 µM | inhibition [2]: 13%

Cc1nc(Nc2ncc(C(=O)Nc3c(C)cccc3Cl)s2)cc(N2CCN(CCO)CC2)n1 [DASATINIB]
IC50 (K562): 7.44 µM | IC50 (DU-145 [3]): 2.43 µM

CC(C)=CCC/C(C)=C\CC/C(C)=C\CSc1ccccc1C(=O)O
IC50 (SMMC-7721): 66 µM

Nc1ccccc1NC(=O)c1ccc(CNC(=O)OCc2cccnc2)cc1 [ENTINOSTAT]
IC50 (K562): 21.3 µM | IC50 (DU-145 [3]): 3.75 µM

Cc1cc(C)c(CNC(=O)c2cc(C)n(-c3ccccc3)c2C)c(=O)[nH]1
IC50 [4]: 15.4 µM

O=C(CCCCCNC(=O)c1cccc2cc3ccccc3nc12)NO
IC50 [5]: 0.0023 µM

COc1cc2ncnc(Nc3ccc(Cl)cc3Cl)c2cc1OCCCCCCC(=O)NO
IC50 (MCF7): 12 µM | IC50 (Histone deacetylase [6]): 0.0028 µM | IC50 [7]: 0.084 µM

CC(/C=C/C(=O)NO)=C\[C@@H](C)C(=O)c1ccc(N(C)C)cc1 [TRICHOSTATIN]
IC50 (Vitamin D3 receptor): 0.087 µM

Cn1c(CCCC(=O)O)nc2cc(N(CCCl)CCCl)ccc21 [BENDAMUSTINE]
IC50 [8]: 0.077 µM

COc1cc2ncnc(Nc3cccc(/C=C/C(=O)NO)c3)c2cc1OCCCN1CCOCC1
IC50 (Histone deacetylase 1 [9]): 0.15 µM

CN(C)CCNC(=O)c1cccc2cc3ccccc3nc12
IC50 (PC-3): 1.86 µM | IC50 (DU-145 [10]): 2 µM

Cn1c(CCCCCCC(=O)NO)nc2cc(N(CCCl)CCCl)ccc21 [TINOSTAMUSTINE]
IC50 (Histone deacetylase 1 [11]): 0.01 µM | IC50 [8]: 2.2 µM

CC(C)=CCC/C(C)=C\CC/C(C)=C\CSc1ccccc1C(=O)NCCCCC(=O)NO
IC50 (Histone deacetylase 1 [11]): 0.00058 µM | IC50 (SMMC-7721): 4.93 µM

CN(C)C(=O)c1cc(Oc2ccc(NC(=O)c3ccc(Cl)c(C(F)(F)F)c3)cc2)ccc1N
IC50 (Histone deacetylase [6]): > 1000 µM

CNC(=O)c1cc(Oc2ccc(NC(=O)c3ccc(Cl)c(C(F)(F)F)c3)cc2)ccc1N
IC50 (Histone deacetylase [6]): 1.17 µM

O=C(CCCCCCN1CC(=O)N2[C@H](CC3c4ccccc4NC3[C@H]2c2ccc(Br)cc2)C1=O)NO (stereo partly drawn)
IC50 [12]: 0.0462 µM | IC50 (Histone deacetylase [13]): 0.0142 µM

O=C(CCn1cc(CCn2nc3c(Br)c(Br)c(Br)c(Br)c3n2)nn1)NO
inhibition (Histone deacetylase 1 [14]): 97%

CNC(=O)c1cc(Oc2ccc(NC(=O)c3ccccc3)cc2)ccc1N
IC50 (Histone deacetylase [6]): 6.19 µM

O=C(CCCCCN1CC(=O)N2[C@@H](CC3c4ccccc4NC3[C@@H]2c2ccc(Br)cc2)C1=O)NO (stereo partly drawn)
IC50 (Histone deacetylase [13]): 0.0612 µM

COCCOc1cc2ncnc(Nc3ccc(/C=C/C(=O)NO)cc3)c2cc1OCCOC
inhibition [15]: 64.2%

CCN1CCN(Cc2ccc(Nc3ncc(F)c(-c4cc(F)c5nc(C)n(C(C)C)c5c4)n3)nc2)CC1
inhibition [16]: 80% | inhibition [17]: 1%

COc1cc2ncnc(Nc3ccc(Br)cc3)c2cc1OCCCCCCC(=O)NO
IC50 (MCF7): 0.88 µM
